How the values were obtained:
Assay in all cases: relative viability (nuclei count vs DMSO), 5 days (fraction); higher = more cells survive
[1] = tested on: NCI-H2347
Outline: (§1)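 The day after seeding in 1536-well plates, lung cancer cell lines were treated by pin tool with a single drug, or with a fixed anchor-drug dose together with five library-drug doses (not always all listed) in √10 steps. After 5 days, a combined fix-and-stain solution (final 0.05% Triton X-100, 1% formaldehyde, 1 ug/ml Hoechst) was added. Nuclei counted on 4× images gave relative viability as treated counts over vehicle counts, reported as the median of duplicate plates.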

[2] = tested on: EKVX
Outline: as §1

[3] = tested on: PC-3 [JPC-3]
Outline: as §1

[4] = tested on: LOU-NH91
Outline: as §1

[5] = tested on: NCI-H650
Outline: as §1

[6] = tested on: NCI-H838
Outline: as §1

[7] = tested on: SW 1573
Outline: as §1

[8] = tested on: LCLC-97TM1
Outline: as §1

[9] = tested on: LU99A
Outline: as §1

[10] = tested on: NCI-H1650
Outline: as §1

[11] = tested on: LC-2-ad
Outline: as §1

[12] = tested on: NCI-H1915
Outline: as §1

[13] = tested on: NCI-H23
Outline: as §1

[14] = tested on: RERF-LC-KJ
Outline: as §1

[15] = tested on: NCI-H1355
Outline: as §1

[16] = tested on: NCI-H1993
Outline: as §1

[17] = tested on: NCI-H1793
Outline: as §1

[18] = tested on: BEN
Outline: as §1

[19] = tested on: NCI-H1666
Outline: as §1

[20] = tested on: NCI-H460
Outline: as §1

[21] = tested on: A-427
Outline: as §1

[22] = tested on: NCI-H520
Outline: as §1

[23] = tested on: NCI-H1648
Outline: as §1

[24] = tested on: NCI-H2228
Outline: as §1

In the case of `CCCCCCCCCCCC1=C(O)C(=O)C=C(O)C1=O` [Embelin] + Nc1nc2[nH]cc(CCc3ccc(C(=O)N[C@@H](CCC(=O)O)C(=O)O)cc3)c2c(=O)[nH]1 [Pemetrexed] (partner 0.2 µM), the relative viability ([1]; first compound 0.08 µM) is reported as 0.413, the relative viability ([1]; first compound 0.8 µM) is reported as 0.482 and the relative viability ([1]; first compound 2.53 µM) is reported as 0.448. For the same compound, the relative viability ([1]; first compound 8 µM) was 0.434, the relative viability ([2]; first compound 0.08 µM) was 0.406 and the relative viability ([2]; first compound 0.8 µM) was 0.465. For the same compound, the relative viability ([2]; first compound 2.53 µM) was 0.368, the relative viability ([2]; first compound 8 µM) was 0.407 and the relative viability ([3]; first compound 0.08 µM) was 1.04. The relative viability ([3]; first compound 0.8 µM) was 1.17, the relative viability ([3]; first compound 2.53 µM) was 1.07 and the relative viability ([3]; first compound 8 µM) was 0.634. It also gave a relative viability ([4]; first compound 0.08 µM) of 0.357, a relative viability ([4]; first compound 0.8 µM) of 0.385 and a relative viability ([4]; first compound 2.53 µM) of 0.381. For the same compound, the relative viability ([4]; first compound 8 µM) was 0.466, the relative viability ([5]; first compound 0.08 µM) was 0.968 and the relative viability ([5]; first compound 0.8 µM) was 1.17. It also gave a relative viability ([5]; first compound 2.53 µM) of 0.979, a relative viability ([5]; first compound 8 µM) of 0.954 and a relative viability ([6]; first compound 0.08 µM) of 0.271. It also gave a relative viability ([6]; first compound 0.8 µM) of 0.238, a relative viability ([6]; first compound 2.53 µM) of 0.252 and a relative viability ([6]; first compound 8 µM) of 0.247. It also gave a relative viability ([7]; first compound 0.08 µM) of 0.92, a relative viability ([7]; first compound 0.8 µM) of 0.844 and a relative viability ([7]; first compound 2.53 µM) of 0.99. For the same compound, the relative viability ([7]; first compound 8 µM) was 0.931, the relative viability ([8]; first compound 0.08 µM) was 0.17 and the relative viability ([8]; first compound 0.8 µM) was 0.166. The relative viability ([8]; first compound 2.53 µM) was 0.163, the relative viability ([8]; first compound 8 µM) was 0.182 and the relative viability ([9]; first compound 0.08 µM) was 0.182. The relative viability ([9]; first compound 0.8 µM) was 0.178, the relative viability ([9]; first compound 2.53 µM) was 0.15 and the relative viability ([9]; first compound 8 µM) was 0.192. It also gave a relative viability ([10]; first compound 0.08 µM) of 0.437, a relative viability ([10]; first compound 0.8 µM) of 0.369 and a relative viability ([10]; first compound 2.53 µM) of 0.494. It also gave a relative viability ([10]; first compound 8 µM) of 0.358, a relative viability ([11]; first compound 0.08 µM) of 0.274 and a relative viability ([11]; first compound 0.8 µM) of 0.282. The relative viability ([11]; first compound 2.53 µM) was 0.257, the relative viability ([11]; first compound 8 µM) was 0.288 and the relative viability ([12]; first compound 0.08 µM) was 0.518. It also gave a relative viability ([12]; first compound 0.8 µM) of 0.488, a relative viability ([12]; first compound 2.53 µM) of 0.558 and a relative viability ([12]; first compound 8 µM) of 0.55. For the same compound, the relative viability ([13]; first compound 0.08 µM) was 0.786, the relative viability ([13]; first compound 0.8 µM) was 0.675 and the relative viability ([13]; first compound 2.53 µM) was 0.589. The relative viability ([13]; first compound 8 µM) was 0.665, the relative viability ([14]; first compound 0.08 µM) was 0.502 and the relative viability ([14]; first compound 0.8 µM) was 0.498. The relative viability ([14]; first compound 2.53 µM) was 0.504, the relative viability ([14]; first compound 8 µM) was 0.474 and the relative viability ([15]; first compound 0.08 µM) was 1.06. For the same compound, the relative viability ([15]; first compound 0.8 µM) was 1.13, the relative viability ([15]; first compound 2.53 µM) was 1.12 and the relative viability ([15]; first compound 8 µM) was 0.784. For the same compound, the relative viability ([16]; first compound 0.08 µM) was 0.609, the relative viability ([16]; first compound 0.8 µM) was 0.568 and the relative viability ([16]; first compound 2.53 µM) was 0.581. For the same compound, the relative viability ([16]; first compound 8 µM) was 0.554, the relative viability ([17]; first compound 0.08 µM) was 0.82 and the relative viability ([17]; first compound 0.8 µM) was 1.06. The relative viability ([17]; first compound 2.53 µM) was 1.18, the relative viability ([17]; first compound 8 µM) was 0.37 and the relative viability ([18]; first compound 0.08 µM) was 0.763. The relative viability ([18]; first compound 0.8 µM) was 0.823, the relative viability ([18]; first compound 2.53 µM) was 1.03 and the relative viability ([18]; first compound 8 µM) was 0.731. The relative viability ([19]; first compound 0.08 µM) was 0.922, the relative viability ([19]; first compound 0.8 µM) was 0.894 and the relative viability ([19]; first compound 2.53 µM) was 0.849. For the same compound, the relative viability ([19]; first compound 8 µM) was 0.817, the relative viability ([20]; first compound 0.08 µM) was 0.0662 and the relative viability ([20]; first compound 0.8 µM) was 0.072. For the same compound, the relative viability ([20]; first compound 2.53 µM) was 0.0629, the relative viability ([20]; first compound 8 µM) was 0.0617 and the relative viability ([21]; first compound 0.08 µM) was 0.993. For the same compound, the relative viability ([21]; first compound 0.8 µM) was 1.07, the relative viability ([21]; first compound 2.53 µM) was 0.963 and the relative viability ([21]; first compound 8 µM) was 0.502. For the same compound, the relative viability ([22]; first compound 0.08 µM) was 0.656, the relative viability ([22]; first compound 0.8 µM) was 0.852 and the relative viability ([22]; first compound 2.53 µM) was 0.708. The relative viability ([22]; first compound 8 µM) was 0.821, the relative viability ([23]; first compound 0.08 µM) was 0.682 and the relative viability ([23]; first compound 0.8 µM) was 0.675. It also gave a relative viability ([23]; first compound 2.53 µM) of 0.776, a relative viability ([23]; first compound 8 µM) of 0.662 and a relative viability ([24]; first compound 0.08 µM) of 0.329. It also gave a relative viability ([24]; first compound 0.8 µM) of 0.347, a relative viability ([24]; first compound 2.53 µM) of 0.345 and a relative viability ([24]; first compound 8 µM) of 0.39.
